Source: US20030194409A1, “Conjugate heat shock protein-binding peptides” (priority 2002, published 2003)
Read-outs that look alike come from different tables or passages of the source.

Experiments:
[1] = biological target: T1, gp96 in the presence of herbimycin A (Mus musculus, UniProt P08113); assay: Affinity panning of phage display heptapeptide library on gp96 in the presence of herbimycin A; type: binding; conditions: for % actual (amino acid frequency in sequenced gp96-binding phage-expressed heptapeptides): TWEEN 20
T1 construct: The mouse cDNA encoding mature gp96 (i.e., wherein the endoplasmic reticulum signal peptide has been removed) was incorporated into the pET 11 a expression vector; made in house; host or cells: Escherichia coli BL21 (pET11gp96)
Protocol: Preparation of a gp96 expression vector. The mouse cDNA encoding mature gp96 (i.e., wherein the endoplasmic reticulum signal peptide has been removed) was incorporated into the pET 11 a expression vector (Novagen) as follows. Gp96 cDNA insert was prepared by polymerase chain reaction (PCR) of a pRc/CMV clone containing the cDNA using the following oligonucleotide primers: […]
Expression of gp96. pET11gp96 was transformed into BL21 Escherichia coli cells, and plated on LB plates containing ampicillin (50 μg/ml). One of the resulting colonies was used to inoculate a 20 ml overnight culture of 2×TY medium containing ampicillin (150 μg/ml). The following day, the resulting culture was spun down and the harvested bacteria were resuspended in 1 ml of fresh medium. Two one liter cultures were then each inoculated with 0.5 ml of the harvested cells and allowed to grow at 37° C. until the optical density, measured at 600 nm, was 0.5. Then, IPTG was added to a concentration of 1 mM and the cells were cultured for another 3 hours before being harvested by centrifugation. The resulting cell pellet was resuspended in 20 ml of 50 mM HEPES pH 7.5, 50 mM KCl, 5 mM MgAcetate, 20% sucrose and 1 mM PMSF. Cell extracts were prepared by pressure shearing in a French Press. The lysates were then spun at 100,000×g for 1.5 hours and the supernatant, which constituted crude gp96 extract, was collected.
Purification of gp96. The following steps were all performed at 4° C. A 12.5 cm×3.2 cm column of DE52 resin (Whatman) was equilibrated in a solution of 50 mM MOPS pH 7.4, 10 mM NaCl, 5 mM MgAcetate (hereafter, “Buffer A”). The crude gp96 extract was diluted 2-fold and immediately loaded onto the column at a flow rate of 2 ml/min. Elution from the column was achieved using a gradient of a solution of 50 mM MOPS pH 7.4, 1M NaCl, 5 mM MgAcetate (hereafter, “Buffer B”) from 0% to 100% Buffer B over 1000 ml. The elution profile was examined by subjecting fractions collected from the column to SDS-PAGE analysis. Fractions containing gp96 were pooled and diluted 2-fold with cold water, and were immediately run onto the next column (see below).
A 10 cm×1 cm column of hydroxyapatite (BioRad) was washed with 100 ml 0.5 M K2HPO4, 50 mM KCl pH 7.4 and then equilibrated with 10 mM K2HPO4, 50 mM KCl pH 7.4. The pooled diluted fractions from the DE52 column were loaded onto this column at a flow rate of 1 ml/min. The gp96 protein was eluted in a gradient of 10-500 mM K2HPO4 over 800 ml. Fractions containing gp96 were pooled and loaded onto the phenylsepharose column described below.
A 9 cm×3 cm column of phenylsepharose (Pharmacia) was equilibrated with 500 mM NaCl, 50 mM MOPS pH 7.4. The pooled fractions containing gp96 from the hydroxyapatite were loaded onto this column at 1 ml/min and the gp96 was eluted in a gradient of 500-0 mM NaCl over 800 ml. The gp96 containing fractions collected from the column were identified by SDS-PAGE, pooled, and concentrated.
The gp96 was then loaded onto a Hi Load 26/60 Superdex-200 column (Pharmacia) equilibrated with 100 mM NaCl, 5 mM MgAcetate, 50 mM MOPS pH 7.5, 3 ml fractions were collected, and the fractions containing the most pure gp96 (as identified by SDS PAGE using a 12 percent reducing gel) and pooled. To the pooled fractions, glycerol was added to 10% (v/v), and then the fractions were concentrated to 21 mg/ml on a Centricon-50 concentrator (Amicon), frozen using liquid nitrogen, and stored at −80° C.
Affinity panning. The Ph.D. Phage Display Library Kit (New England BioLabs, Beverly, Mass.), was used for affinity panning. For each panning experiment, a well of a 96-well polystyrene microtiter plate (each well having a 6 mm diameter) was filled with 150 μl of a solution of 200 μg/ml of gp96 in 0.1 M NaHCO3 pH 8.3. If herbimycin A was to be included in the experiment, 1 μl of 10 mg/ml herbimycin A (GIBCO) in DMSO was added to each well, corresponding to a 50-fold molar excess relative to gp96. […]

[2] = biological target: T1, gp96 in the presence of herbimycin A; conditions: expected frequency for comparison with % actual, cited from earlier work
[3] = Table XII, gp96 and herbimycin A, binding buffer without calcium: 20 mM HEPES pH 7.5, 100 mM KCl, 1 mM DTT, 1 mM MgAcetate, 42 phage-expressed peptides sequenced
[4] = Table XIV, gp96 in the presence of herbimycin A, binding buffer with ATP: 20 mM HEPES pH 7.5, 100 mM KCl, 1 mM CaCl2, 1 mM MgAcetate, 1 mM ATP
[5] = Table XVI, binding buffer with AMP-PNP instead of ATP: 20 mM HEPES pH 7.5, 100 mM KCl, 1 mM CaCl2, 1 mM MgAcetate, 1 mM AMP-PNP

T1 sequence (P08113 22-802): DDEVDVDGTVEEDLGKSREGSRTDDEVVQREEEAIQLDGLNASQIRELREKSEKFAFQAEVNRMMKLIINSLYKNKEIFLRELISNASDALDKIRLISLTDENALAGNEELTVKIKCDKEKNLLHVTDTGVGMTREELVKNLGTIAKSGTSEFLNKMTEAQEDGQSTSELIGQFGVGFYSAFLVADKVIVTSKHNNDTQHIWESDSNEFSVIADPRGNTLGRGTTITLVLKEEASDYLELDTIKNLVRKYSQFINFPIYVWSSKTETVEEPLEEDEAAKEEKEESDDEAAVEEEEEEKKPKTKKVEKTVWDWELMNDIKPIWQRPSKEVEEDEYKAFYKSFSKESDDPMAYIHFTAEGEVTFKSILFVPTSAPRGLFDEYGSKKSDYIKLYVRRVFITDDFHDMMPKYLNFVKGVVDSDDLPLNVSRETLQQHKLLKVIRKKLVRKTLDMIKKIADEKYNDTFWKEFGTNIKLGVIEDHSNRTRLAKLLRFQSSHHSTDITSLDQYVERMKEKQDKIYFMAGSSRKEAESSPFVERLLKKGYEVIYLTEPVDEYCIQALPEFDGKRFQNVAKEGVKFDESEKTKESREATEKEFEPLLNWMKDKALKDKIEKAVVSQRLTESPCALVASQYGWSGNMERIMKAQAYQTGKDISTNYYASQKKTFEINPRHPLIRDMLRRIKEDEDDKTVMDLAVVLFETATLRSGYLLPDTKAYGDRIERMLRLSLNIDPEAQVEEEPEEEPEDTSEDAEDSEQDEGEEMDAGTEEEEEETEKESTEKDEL

| Molecule | % actual (amino acid frequency in sequenced gp96-binding phage-expressed heptapeptides) [1, 3] [%] | % actual (amino acid frequency in sequenced gp96-binding phage-expressed heptapeptides) [1, 4] [%] | % actual (amino acid frequency in sequenced gp96-binding phage-expressed heptapeptides) [1, 5] [%] | % expected (amino acid frequency) ([2]; Table XII) [%] | % expected (amino acid frequency) ([2]; Table XIV) [%] | % expected (amino acid frequency) ([2]; Table XVI) [%] | binding of phage-expressed peptides to gp96 ([1]; 20 mM HEPES pH 7.5, 100 mM KCl, 25 mM CaCl2, 5 mM MgAcetate, TWEEN-20, herbimycin A present) |
| --- | --- | --- | --- | --- | --- | --- | --- |
| C[C@H](N)C(=O)O [Ala] | 10.2 | 3.57 | 8.5 | 7.2 | 7.2 | 7.2 | – |
| N=C(N)NCCC[C@H](N)C(=O)O [Arg] | 2.72 | 5.35 | 5.7 | 3.9 | 3.9 | 3.9 | – |
| NC(=O)C[C@H](N)C(=O)O [Asn] | 3.06 | 5.3 | 5.7 | 4.1 | 4.1 | 4.1 | – |
| N[C@@H](CC(=O)O)C(=O)O [Asp] | 2.04 | 0 | 1.4 | 2.1 | 2.1 | 2.1 | – |
| N[C@@H](CS)C(=O)O [Cys] | 0 | 0 | 0 | 0.8 | 0.8 | 0.8 | – |
| NC(=O)CC[C@H](N)C(=O)O [Gln] | 2.0 | 1.78 | 5.7 | 6.4 | 6.4 | 6.4 | – |
| N[C@@H](CCC(=O)O)C(=O)O [Glu] | 2.0 | 0 | 0 | 1.2 | 1.2 | 1.2 | – |
| NCC(=O)O [Gly] | 3.74 | 1.78 | 1.4 | 3.7 | 3.7 | 3.7 | – |
| N[C@@H](Cc1c[nH]cn1)C(=O)O [His] | 5.44 | 10.7 | 12.8 | 4.3 | 4.3 | 4.3 | – |
| CC(C)C[C@H](N)C(=O)O [Leu] | 12.92 | 10.7 | 5.7 | 11.8 | 11.8 | 11.8 | – |
| NCCCC[C@H](N)C(=O)O [Lys] | 3.74 | 0 | 2.85 | 1.7 | 1.7 | 1.7 | – |
| CSCC[C@H](N)C(=O)O [Met] | 2.0 | 0 | 2.85 | 3.3 | 3.3 | 3.3 | – |
| N[C@@H](Cc1ccccc1)C(=O)O [Phe] | 2.38 | 0 | 2.85 | 2.9 | 2.9 | 2.9 | – |
| O=C(O)[C@@H]1CCCN1 [Pro] | 10.88 | 14.2 | 12.8 | 12 | 12 | 12 | – |
| N[C@@H](CO)C(=O)O [Ser] | 10.88 | 16.0 | 4.28 | 11.4 | 11.4 | 11.4 | – |
| C[C@@H](O)[C@H](N)C(=O)O [Thr] | 13.95 | 8.9 | 10 | 9.3 | 9.3 | 9.3 | – |
| N[C@@H](Cc1c[nH]c2ccccc12)C(=O)O [Trp] | 1.36 | 3.57 | 2.85 | 1 | 1 | 1 | – |
| Phe-His-Trp-Trp-Trp (FHWWW; printed: Phe-His-Trp-Trp-Trp) | – | – | – | – | – | – | appeared to be favored |
